Test results as given in US20040171594A1, “Use of bis-acid(5-androsten-17-one-3beta-hydroxyl)diester for manufacture pharmaceuticals” (priority 2001, published 2004).
Marks after values point to notes of the source that are not given here.

How the values were obtained:
[1] = system: arrhythmia of rats induced by Aconitine; experiment: Arrhythmia of rats induced by Aconitine; type: in vivo, SD rats
Protocol: Male SD rats, weighing (218.3±20.0) g, were anaesthetized with urethane 1.2 g/kg body weight by abdominal injection, continuously monitored by II lead electrocardiogram (ECG) by MS302 Biological Signal Record and Analysis System. After ten minutes of being administered drug or 0.5% CMC-Na through sublingual vein, rats were injected with Aconitine in external jugular vein at 2.5 μg/min speed, recorded the dose at appearance time of ventricular premature beat (VP), ventricular tachycardia (VT), ventricular fibrillation (VF) and cardiac arrest (CA), respectively. And t test was performed. […] The effect of compounds Ca Do E at 0.5 mg/kg dose were remarkably better than that of Prasterone and Arniodarone.

[2] = system: myocardium injury model of rats induced by ISO; experiment: Myocardium injury (myocardial ischemia) model of rats induced by ISO; type: in vivo, SD rats; settings: drug 0.76 mg/kg, n=8; for Σ ST: rats, ISO s.c.
Protocol: SD rats were measured ECG by chest leads before experiment, abandoned those of abnormal or arrhythmia at T wave, ST sect. […] They were divided into four groups according to Table 4, eight rats in each group. As dose of Table 4, tested compounds or 0.5% CMC-Na solution with same volume were administered through duodenum for 30 minutes, rats were anaesthetized with aether. After ECG was recorded, Isoproterenol (ISO) was administered by subcutaneous injection from the back, recorded ECG again after 30 minutes. After specimen was intragastricly granted for 24 hours and 48 hours, every group was administered simples again and recorded ECG again in terms of the methods stated above. After 72 hours, bleeding from the ophthalmic venous plexus and separated blood serum through centrifugation. Killed the rats, scissor the tip of the heart to prepare 10% myocardial tissue homogenate with 4° C. physiological saline as standby.
Measured each rat's value of ST before first administering ISO. And after first, second and third subcutaneous injection for 30 minutes, calculated mv mean value of ΣST as guide line of myocardium injury and performed t test.
The changes of MDA LDH and CK in serum were measured with agent kits.
The changes of MDA, LDH and CK in serum and myocardial tissue homogenate were measured with agent kits.

[3] = system: cerebral ischemia-reperfusion injury of mice; experiment: Memory step-through test after cerebral ischemia-reperfusion injury; type: in vivo, NIH mice; settings: 4.5 mg/kg intragastric once a day for 10 days, n=10
Protocol: After weighed, NIH mice were anaesthetized with Penbotarbital 60 mg/kg, then performed operation. Fixed at supine position, the skin in the middle of the deck was dissected about 7 mm. Separated common carotid artery of two sides of neck, surrounded with the thread of No “0”. Common carotid artery of two sides was chipped with artery clip for 2 minutes to induce cerebral ischemia. In the end of ischemia treatment, artery clip was loosed and blood perfusion was restored, rest for five minutes, repeated twice as that. After blocking blood flow of carotid, sutured incision. Recorded trail bloodletting, bloodletting quantity was no more than 10% of total blood quantity. After operation, […] were administered with proper physiological saline through intraperitoneal injection in order to supple capacity of blood. After pseudo operation group was anaesthetized, carotid of two sides was separated but blood flow was not blocked, without being bloodletting too.
In experiment appearance of body temperature lowering and righting reflex disappearing was as positive guide-line of ischemia, discarding those without typical guide line of ischemia. In the procedure of ischemia or after operation, some of animals would be dead. […] According to the dose of Table 7, animals were administered with medicine by intragastric intubation once a day, and continue administered drug for 10 days. After 10 days, memory test was performed.

[4] = system: osteoporosis model of rats induced by Retinoic acid; experiment: Osteoporosis model of rats induced by Retinoic acid; type: in vivo, SD rats; settings: Retinoic acid 70 mg/kg, specimen orally 30 days (dose not given), right thighbone, n=8
Description: After continuously administering specimen for 30 days, killed rats and took right thighbone of rat.
Took same part tissue of right thighbone, routinely decalcified, enveloped with olefin, and dyed with HE. Observed with ordinary optics microscope, import all imagines into computer with A/D conversion of pickup camera, via dealing with image analysis software obtained index of guide line as follows: relative bone volume, indicating percentage that bone trabecula accounted for medullary cavity, 1.25×10×4 times; average width of bone trabecula, 1.25×10×10 times; amount of cell per area in bone trabecula, gathering same area image (640×480) of bone trabecula with image analysis software, calculating amount of bone cell in corresponding area, 1.25×10×40 times; Average length of bone cell lacuna, 1.25×10×40; Average width of bone cell lacuna, 1.25×10×40. The above five indexes of static state guide-line were all observed for ten eyeshots, calculating their average value.

[5] = system: acute renal failure of mice induced by endotoxin; experiment: Acute renal failure model induced by endotoxin; type: in vivo, NIH mice; settings: drug 10 mg/kg i.p., endotoxin 0.06 g/kg, after five hours, n=10; for GSH-Px: mice kidney homogenate; for BUN / Cr: mice serum
Protocol: After five hours, blood of the mice was collected by removing eyes, assayed Blood Urea Nitrogen (BUN) and Creatinine (Cr) concentration of serum. One kidney of each […] was taken out and made 100 mL/L homogenate, assayed activity of Glutathione Peroxidase (GSH-Px) enzyme.

[6] = system: thymus and spleen of mice; experiment: Indexes of thymus and spleen of mice injected with cyclophosphamide; type: in vivo, NIH mice; settings: cyclophosphamide 60 mg/kg i.p., drug 10 mg/kg intragastric for 30 days, n=10
Protocol: Chose 90 healthy NIH mice, weighing (18˜22)g, equal amount of male and female. Every mouse was injected with cyclophos phamide (60 mg/kg, intraperitoneally). […] Administered specimen through intragastric intubation in terms of the dose in Table 8. Continuously administered orally specimen for 30 days, all mice fasted on the 30th day, but were supplied with water. On the 31th day, mice of every group were killed. Weighed their body, thymus and spleen, calculated index of thymus and spleen, compared the difference among each group.

[7] = system: arrhythmia of guinea pigs induced by Ouabain; experiment: Arrhythmia of guinea pigs induced by Ouabain; type: in vivo; settings: n=8
Protocol: Chose 40 male guinea pigs, weighing (288.8±38.3) g, randomly divided into six groups, anaesthetized with urethane 1.2 g/kg by abdominal injection. Ten minutes after administered drug or 0.5% CMC-Na, the guinea pigs were injected Ouabain into external jugular vein at 3 μg/min speed, recorded ECG respectively, measured the dose at appearance time of VP, VT, VF and CA, and performed t test.

[8] = rats, drug 0.5 mg/kg sublingual vein 10 min before Aconitine 2.5 μg/min, n=10
[9] = myocardial tissue homogenate of rats with ISO myocardium injury
[10] = serum of rats with ISO myocardium injury, after 72 hours
[11] = drug 4.5 mg/kg 10 min before Ouabain 3 μg/min
[12] = drug 2.5 mg/kg 10 min before Ouabain 3 μg/min

Compound	Activity of CK [2, 9] [U/L]	Activity of LDH [2, 9] [U/L]	MDA [2, 9] [nmol/g]	Σ ST ([2]; 30 min) [mv]	Σ ST ([2]; 24 h) [mv]	Σ ST ([2]; 48 h) [mv]	Σ ST ([2]; 72 h) [mv]	Activity of CK [2, 10] [U/L]	Activity of LDH [2, 10] [U/L]	MDA [2, 10] [nmol/mL]	Latency of dark cabin, Memory [3] [s]	Latency of dark cabin, Study [3] [s]	Number of error [3] [n]	Amount of cell per area in bone trabecula [4]	Average width of bone trabecula [4] [μm]	GSH-Px [5] [nU · L^−1]	BUN [5]	Dose of Aconitine required to induce CA ([1]; {}) [mg/kg]	Dose of Aconitine required to induce VF ([1]; {}) [mg/kg]	Dose of Aconitine required to induce VP ([1]; {}) [mg/kg]	also measured
C[C@]12CC[C@H](OC(=O)CC(=O)O[C@H]3CC[C@@]4(C)C(=CC[C@@H]5[C@@H]4CC[C@]4(C)C(=O)CC[C@@H]54)C3)CC1=CC[C@@H]1[C@@H]2CC[C@]2(C)C(=O)CC[C@@H]12 [Compound C, malonic acid-(5-androsten-17-one-3β-ol)-diester]	186.55 ± 26.25	201.33 ± 25.24	121.67 ± 15.24	0.64 ± 0.21	0.52 ± 0.11	0.50 ± 0.14	0.52 ± 0.12	262.50 ± 35.41	270.13 ± 27.46	28.29 ± 6.56	58.1 ± 16.2	24.4 ± 17.3	2.5 ± 1.5	19.50 ± 5.54	72.69 ± 10.38	29.8 ± 11.6	387.0 ± 40.2*** 10 mg · L^−1				Dose of Aconitine required to induce CA [1, 8]: 0.1865 ± 0.0317 mg/kg; Dose of Aconitine required to induce VF [1, 8]: 0.1528 ± 0.0393 mg/kg; Dose of Aconitine required to induce VP [1, 8]: 0.098 ± 0.0291 mg/kg; Dose of Aconitine required to induce VT [1, 8]: 0.1189 ± 0.0353 mg/kg
CC12CCC3C(CC=C4CC(OC(=O)CCC(=O)OC5CCC6(C)C(=CCC7C8CCC(=O)C8(C)CCC76)C5)CCC43C)C1CCC2=O (stereo not drawn) [Compound D, succinic acid-(5-androsten-17-one-3β-ol)-diester]	270.41 ± 34.31	292.27 ± 29.44	78.43 ± 7.51	0.42 ± 0.20	0.47 ± 0.13	0.42 ± 0.08	0.40 ± 0.10	229.27 ± 31.32	218.55 ± 37.35	18.15 ± 4.52	67.4 ± 19.7	37.3 ± 15.1	1.2 ± 1.0	20.70 ± 5.27	70.76 ± 8.56	38.4 ± 15.0	295.5 ± 36.0*** 10 mg · L^−1	0.204 ± 0.028	0.1864 ± 0.0302	0.1224 ± 0.0205	Dose of Aconitine required to induce VT ([1]; {}): 0.1378 ± 0.0244 mg/kg; Index of spleen [6]: 103.47 ± 13.40 mg/10 g body weight; Index of thymus [6]: 25.59 ± 3.70 mg/10 g body weight; Relative bone volume [4]: 41.55 ± 4.38 %; Cr [5]: 29.31 ± 7.94*** 10 mg · L^−1
C[C@]12CC[C@H](O)CC1=CC[C@@H]1[C@@H]2CC[C@]2(C)C(=O)CC[C@@H]12 [Parsterone, Prasterone, reference compound]																		0.1645 ± 0.0271	0.1327 ± 0.0244	0.0935 ± 0.019	Dose of Aconitine required to induce VT ([1]; {}): 0.11 ± 0.0161 mg/kg; Dose of Oua at appearance of CA [7, 11]: 0.1955 ± 0.033 mg/kg; Dose of Oua at appearance of VF [7, 11]: 0.1654 ± 0.0264 mg/kg; Dose of Oua at appearance of VP [7, 11]: 0.0893 ± 0.0155 mg/kg; Dose of Oua at appearance of VT [7, 11]: 0.1316 ± 0.0246 mg/kg
C=C1/C(=C\C=C2/CCC[C@]3(C)[C@@H]([C@H](C)CCCC(C)(C)O)CC[C@@H]23)C[C@@H](O)C[C@@H]1O [Rocaltrol, reference compound]														19.27 ± 3.89	67.16 ± 13.11						Relative bone volume [4]: 36.72 ± 7.82 %
propanediol-disulphonic acid-(5-androsten-17-one-3β-ol)-diester [Compound H]	230.15 ± 53.46		105.52 ± 14.64	0.53 ± 0.11	0.50 ± 0.10	0.52 ± 0.04	0.51 ± 0.12	261.24 ± 24.27	253.24 ± 31.55	21.17 ± 3.36	56.0 ± 17.2	26.2 ± 15.2	3.0 ± 1.5	35.69 ± 3.70	60.84 ± 4.81	35.6 ± 10.7	366.0 ± 30.2*** 10 mg · L^−1				Dose of Oua at appearance of CA [7, 12]: 0.2232 ± 0.0307 mg/kg; Dose of Oua at appearance of VF [7, 12]: 0.1981 ± 0.0415 mg/kg; Dose of Oua at appearance of VP [7, 12]: 0.116 ± 0.037 mg/kg; Dose of Oua at appearance of VT [7, 12]: 0.1402 ± 0.0356 mg/kg; Cr [5]: 35.78 ± 7.26*** 10 mg · L^−1
